From ChEMBL document CHEMBL2029244, “Synthesis and antimycobacterial activity of prodrugs of sulfur dioxide (SO2)” (Bioorg Med Chem Lett, 2012) come the findings set out here.

≈ marks a conversion by molar mass, not a printed value.

The test system of one data set is Mycobacterium tuberculosis. The data set is described as follows: Antimycobacterial activity against Mycobacterium tuberculosis H37Rv after 28 days. In kind it is functional. To be noted: 672 h.
One may read the MIC as the least concentration at which growth counts as inhibited. Higher therefore signals weaker potency. On to `COc1ccc(CNS(=O)(=O)c2ccc([N+](=O)[O-])cc2[N+](=O)[O-])cc1`, for which the MIC is 0.25 µg/mL (≈ 0.681 µM).

Regarding `O=[N+]([O-])c1ccc(S(=O)(=O)NCc2ccc(Cl)cc2)c([N+](=O)[O-])c1`, the MIC was found to be 0.4 µg/mL (≈ 1.08 µM).

On to `O=[N+]([O-])c1ccc(S(=O)(=O)NCc2ccc(C(F)(F)F)cc2)c([N+](=O)[O-])c1`, for which the lowest concentration to inhibit growth (MIC) was 0.4 µg/mL (≈ 0.987 µM).

In turn, `O=[N+]([O-])c1ccc(S(=O)(=O)NCc2ccccc2C(F)(F)F)c([N+](=O)[O-])c1` displayed an MIC of 1.56 µg/mL (≈ 3.85 µM).

The compound `COc1ccccc1NS(=O)(=O)c1ccc([N+](=O)[O-])cc1[N+](=O)[O-]` had an MIC of 3.13 µg/mL (≈ 8.86 µM). This MIC is about 2-fold higher than that of the compound before.

Consider `O=[N+]([O-])c1ccc(S(=O)(=O)Nc2ccc(F)cc2)c([N+](=O)[O-])c1`, for which it took 6.25 µg/mL (≈ 18.3 µM) to inhibit growth (MIC). Compared with the last compound, the MIC is about 2-fold higher.

With `N#Cc1ccc(NS(=O)(=O)c2ccc([N+](=O)[O-])cc2[N+](=O)[O-])cc1`, the MIC was > 50 µg/mL.

The compound `C[C@H](NS(=O)(=O)c1ccc([N+](=O)[O-])cc1[N+](=O)[O-])c1ccccc1` yielded a minimal inhibitory concentration (MIC) of 1.56 µg/mL (≈ 4.44 µM).

Compound `C[C@@H](NS(=O)(=O)c1ccc([N+](=O)[O-])cc1[N+](=O)[O-])c1ccccc1` had an MIC of 1.56 µg/mL (≈ 4.44 µM).

As to `O=[N+]([O-])c1ccc(S(=O)(=O)NCCc2ccccc2)c([N+](=O)[O-])c1`, the MIC is 0.4 µg/mL (≈ 1.14 µM).

`O=[N+]([O-])c1ccc(S(=O)(=O)N(Cc2ccccc2)c2ccccc2)c([N+](=O)[O-])c1` returned an MIC of 1.56 µg/mL (≈ 3.77 µM).

The compound `CN(c1ccccc1)S(=O)(=O)c1ccc([N+](=O)[O-])cc1[N+](=O)[O-]` showed a minimal inhibitory concentration (MIC) of 0.78 µg/mL (≈ 2.31 µM).

In the case of `CN(CCc1ccccc1)S(=O)(=O)c1ccc([N+](=O)[O-])cc1[N+](=O)[O-]`, the MIC came to 0.78 µg/mL (≈ 2.13 µM).

As to `O=[N+]([O-])c1ccc(S(=O)(=O)N(CCc2ccccc2)Cc2ccccc2)c([N+](=O)[O-])c1`, it took 3.13 µg/mL (≈ 7.09 µM) to inhibit growth (MIC).

In turn, `CC[C@@H](CO)NCCN[C@@H](CC)CO` [ETHAMBUTOL] had an MIC of 1.56 µg/mL (≈ 7.64 µM).

As for `NNC(=O)c1ccncc1` [ISONIAZID], the MIC turned out to be 0.05 µg/mL (≈ 0.365 µM).

On to `NC(=O)c1cnccn1` [PYRAZINAMIDE], for which 6.25 µg/mL (≈ 50.8 µM) was the least that counted as inhibitory (MIC).

Test system in the next data set: not listed separately
The data set is described as follows: Drug degradation assessed as decrease in compound level at pH 7.4 after 30 mins in the presence of 2-mercaptoethanol. In kind it is physicochemical. To be noted: buffer, pH 7.4, 0.5 h.
In the case of `COc1ccc(NS(=O)(=O)c2ccc([N+](=O)[O-])cc2[N+](=O)[O-])cc1`, the Drug degradation entry is “Active”.

Test system in the next data set: not listed separately
The data set is described as follows: Drug degradation assessed as 2-hydroxyethylthio-2,4-dinitrobenzene production at pH 7.4 after 6 hrs in the presence of 2-mercaptoethanol. To be noted: buffer, pH 7.4, 6 h. In kind it is physicochemical.
Consider `COc1ccc(NS(=O)(=O)c2ccc([N+](=O)[O-])cc2[N+](=O)[O-])cc1`, for which the Drug degradation result was “Active”.
